Measured values reported in the Deep4Chem optical property database.

Experiment: solvent given as SMILES

CC(=O)O[B-]1(OC(C)=O)OC(/C=C/C=C/c2ccccc2)=CC(/C=C/C=C/c2ccccc2)=[O+]1
emission maximum (in C1CCOC1): 531 nm | emission maximum (in CC#N): 550 nm | emission maximum (in CC(C)=O): 544 nm | emission maximum (in CS(C)=O): 558 nm | emission maximum (in Cc1ccccc1): 523 nm | emission maximum (in ClC(Cl)Cl): 543 nm | emission maximum (in ClCCl): 545 nm

CCCCCCCCCCCCOc1cc2c3cc(OCCCCCCCCCCCC)c(OCCCCCCCCCCCC)cc3c3c(cc(OCCCCCCCCCCCC)c4nc5cc(C#Cc6ccc(OCCCC)cc6)c(C#Cc6ccc(OCCCC)cc6)cc5nc43)c2cc1OCCCCCCCCCCCC
emission maximum (in ClC(Cl)Cl): 661 nm

CC(C)(C)c1ccc2c(c1)Cc1cc(C(C)(C)C)ccc1-2
emission maximum (in C1CCCCC1): 348 nm

FC(F)(F)c1ccc(/C=C/c2nc(/C=C/c3ccc(N(c4ccccc4)c4ccccc4)cc3)cc(/C=C/c3ccc(N(c4ccccc4)c4ccccc4)cc3)n2)cc1
emission maximum (in C1CCOC1): 526 nm | emission maximum (in CC#N): 600 nm | emission maximum (in CC(C)=O): 567 nm | emission maximum (in CCCCCCC): 467 nm | emission maximum (in CS(C)=O): 599 nm | emission maximum (in Cc1ccccc1): 486 nm | emission maximum (in ClCCl): 554 nm

CN(C)c1ccc(C2=CC(c3ccccc3)=[N+]3C2=Nc2c(-c4ccc(N(C)C)cc4)cc(-c4ccccc4)n2[B-]3(F)F)cc1
emission maximum (in Cc1ccccc1): 822 nm

CCOC(=O)c1c(-c2cc3ccc(OCC=C(C)C)cc3oc2=O)nn(-c2ccccc2)c1C(=O)OCC
emission maximum (in ClCCl): 425 nm

CN(C)c1ccc(/C=C/C=C/C=C/c2ccc(B(O)O)cc2)cc1
emission maximum (in C1CCCCC1): 470 nm

c1ccc2c(-c3ccc(-n4c5ccccc5c5ccccc54)cc3)c3c(nc2c1)-c1cc2c(cc1CC3)-c1nc3ccccc3c(-c3ccc(-n4c5ccccc5c5ccccc54)cc3)c1CC2
emission maximum (in ClC(Cl)Cl): 385 nm

CC(=O)Nc1cccc2c1C#Cc1c(cccc1C(=O)N(C)C)OCCCO2
emission maximum (in CC#N): 394 nm | emission maximum (in ClCCl): 390 nm

O=C(O)c1c2ccccc2nc2ccccc12
emission maximum (in C1CCOC1): 418 nm | emission maximum (in C1COCCO1): 421 nm | emission maximum (in CC#N): 421 nm | emission maximum (in CCCCCO): 422 nm | emission maximum (in CCCCO): 422 nm | emission maximum (in CCCO): 422 nm | emission maximum (in CCO): 421 nm | emission maximum (in CO): 421 nm | emission maximum (in COCCOC): 419 nm | emission maximum (in ClC(Cl)Cl): 436 nm | emission maximum (in ClCCl): 422 nm | emission maximum (in OCCO): 425 nm

C1=C(c2ccc(-c3cccs3)s2)CCC(c2ccccc2)C1 (centres undefined)
emission maximum (in C1CCOC1): 412 nm | emission maximum (in CC#N): 411 nm | emission maximum (in CCCCCC): 409 nm | emission maximum (in CCO): 411 nm | emission maximum (in OCCOCCO): 412 nm | emission maximum (in c1ccncc1): 417 nm

N#CC1=c2cc3c4c(c2Oc2c1cc1c5c2CCCN5CCC1)CCC[N+]=4CCC3
emission maximum (in CCO): 700 nm

CN(C)c1ccc(/C=C/c2nc(N3CCOCC3)c3c([n+]2[O-])CCCC3)cc1
emission maximum (in ClCCl): 523 nm

COC(=O)CNC(=O)CCNc1cccc2ccccc12
emission maximum (in CCO): 417 nm

O=C1C(=c2c(=O)c3c4ccccc4cc4cc5ccccc5c2c43)C(=O)c2ccccc21
emission maximum (in C1CCOC1): 583 nm | emission maximum (in CC#N): 604 nm | emission maximum (in CCCCCC): 556 nm | emission maximum (in Cc1ccccc1): 578 nm | emission maximum (in ClCCl): 599 nm

COc1cc2c(cc1OC)C1=C[C@H](c3ccccc3)C3(C(C(=O)O[C@@H]4C[C@H]5CC[C@@H]4C5)=C(C(=O)O[C@H]4C[C@@H]5CC[C@H]4C5)N1CC2)c1ccccc1-c1ccccc13
emission maximum (in ClCCl): 422 nm

COc1ccc(C2=C(c3ccc([N+](=O)[O-])cc3)C(c3ccccc3)=[N+]3C2=Nc2c(-c4ccc(OC)cc4)c(-c4ccc([N+](=O)[O-])cc4)c(-c4ccccc4)n2[B-]3(F)F)cc1
emission maximum (in Cc1ccccc1): 688 nm

COC(=O)C1(C(=O)OC)Cc2c(C#Cc3ccc(OC)cc3)c(-c3ccc(OC)cc3)c3c(-c4ccccc4)c(-c4ccccc4)c(-c4ccccc4)c(-c4ccccc4)c3c2C1
emission maximum (in C1CCOC1): 421.77 nm

COc1ccc(-c2ccc(-c3ccc(OC)cc3)cc2)cc1
emission maximum (in C1CCCCC1): 360 nm

c1ccc(-n2c3ccccc3c3cc([Si](c4ccccc4)(c4ccccc4)c4ccc5c(c4)c4ccccc4n5-c4ccccc4)ccc32)cc1
emission maximum (in ClCCl): 350 nm

CN1C(=O)c2cccc3c(-n4c5ccccc5c5ccccc54)ccc(c23)C1=O
emission maximum (in C1CCOC1): 537 nm | emission maximum (in CCCCCC): 440 nm | emission maximum (in ClC(Cl)Cl): 489 nm | emission maximum (in ClCCl): 556 nm

CCCc1ccc(C#Cc2cc(C#Cc3ccc(CCC)cc3)c3ccc4c(C#Cc5ccc(CCC)cc5)cc(C#Cc5ccc(CCC)cc5)c5ccc2c3c54)cc1
emission maximum (in ClCCl): 494 nm

CC1(C)c2ccccc2N(c2ccccc2)c2ccc(S(=O)(=O)c3ccc4c(c3)C(C)(C)c3ccccc3N4c3ccccc3)cc21
emission maximum (in Cc1ccccc1): 370.45 nm | emission maximum (in O=P(c1ccccc1)(c1ccccc1)c1ccccc1Oc1ccccc1P(=O)(c1ccccc1)c1ccccc1): 381 nm

CC1=C(C#Cc2ccccc2)C2=Cc3c(C#Cc4ccccc4)c(C)c(C)n3[B-](F)(F)[N+]2=C1C
emission maximum (in CC#N): 579 nm

CCN(CC)c1ccc2cc(-c3nc4cc(C(=O)Nc5cccc(C)c5)ccc4o3)c(=O)oc2c1
emission maximum (in ClCCl): 495 nm

COc1ccccc1CC(=O)OCc1c(C)c(=O)n2c(=O)c(C)c(C)n12
emission maximum (in CCO): 461 nm

CCOC(=O)CCCCCn1c2ccc(C)cc2c(=O)c2cc3c(cc21)c(=O)c1cc(C)ccc1n3CCCCCC(=O)OCC
emission maximum (in CO): 565 nm
